Experimental findings from ChEMBL document CHEMBL5380821, “Discovery of a PDZ Domain Inhibitor Targeting the Syndecan/Syntenin Protein-Protein Interaction: A Semi-Automated "Hit Identification-to-Optimization" Approach” (J Med Chem, 2023) are described below.

One assay deals with Syntenin-1/Syndecan-2 (Homo sapiens, UniProt O00560). The assay can be described thus: Inhibition of full length N-terminal GST-tagged human syntenin-1 expressed in Escherichia coli ER2566/syndecan2 (unknown origin) interaction incubated for 16 hrs by HTRF assay.
Assay [1] deals with MDA-MB-231. Put plainly: Inhibition of cell migration in wild-type human MDA-MB-231 cells assessed as decrease in migration speed at 100 uM incubated for 24 hrs by 2D phase contrast video microscopic analysis. Type of assay: functional, cell-based.
For assay [2], the system named is MDA-MB-231. Put plainly: Inhibition of cell migration in wild-type human MDA-MB-231 cells assessed as decrease in euclidean distance at 100 uM incubated for 24 hrs by 2D phase contrast video microscopic analysis. The class given is functional, cell-based.
Assay [3] concerns the target GRASP55-JAMB (Homo sapiens) (UniProt Q9H8Y8+P57087). The assay can be described thus: Inhibition of N-terminal GST-tagged GRASP55 (unknown origin) expressed in Escherichia coli BL21 (DE3) cells/JAM-B (unknown origin) complex incubated for 16 hrs by HTRF assay.
Assay [4] concerns the target ERBIN-P0071 (Homo sapiens) (UniProt Q96RT1+Q99569). Put plainly: Inhibition of N-terminal GST-tagged Erbin (unknown origin) expressed in Escherichia coli BL21 (DE3) cells/P0071 (unknown origin) complex incubated for 16 hrs by HTRF assay.
The next assay concerns the target T1, Syntenin-1 (Homo sapiens, UniProt O00560).
T1 sequence (O00560 whole entry): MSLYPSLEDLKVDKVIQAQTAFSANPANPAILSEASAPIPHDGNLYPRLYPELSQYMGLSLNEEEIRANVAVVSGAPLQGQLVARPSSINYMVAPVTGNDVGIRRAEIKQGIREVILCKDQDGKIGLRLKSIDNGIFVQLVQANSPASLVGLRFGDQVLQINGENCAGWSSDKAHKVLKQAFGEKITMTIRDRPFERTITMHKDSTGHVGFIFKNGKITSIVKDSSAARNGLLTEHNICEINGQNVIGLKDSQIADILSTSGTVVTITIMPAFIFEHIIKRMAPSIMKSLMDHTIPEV
Put plainly: Binding affinity to full length N-terminal GST-tagged human syntenin-1 expressed in Escherichia coli ER2566 assessed as dissociation constant by ITC analysis.

In assay [5] the test system is MDA-MB-231. The assay can be described thus: Cytotoxicity against wild-type human MDA-MB-231 cells assessed as reduction in cell viability upto 100 uM measured after 48 hrs by Annexin V-FITC staining based flow cytometric analysis. Type of assay: functional.
The test system of assay [6] is MDA-MB-231. Put plainly: Cytotoxicity against human MDA-MB-231 cells with syntenin CRISPR/Cas9 knockout assessed as reduction in cell viability upto 100 uM measured after 48 hrs by Annexin V-FITC staining based flow cytometric analysis. The class given is functional.
For assay [7], the system named is MDA-MB-231. The assay can be described thus: Inhibition of cell migration in human MDA-MB-231 cells with syntenin CRISPR/Cas9 knockout assessed as decrease in migration speed at 100 uM incubated for 24 hrs by 2D phase contrast video microscopic analysis. The class given is functional, cell-based.
The test system of assay [8] is MDA-MB-231. Put plainly: Inhibition of cell migration in human MDA-MB-231 cells with syntenin CRISPR/Cas9 knockout assessed as decrease in euclidean distance at 100 uM incubated for 24 hrs by 2D phase contrast video microscopic analysis. Type of assay: functional, cell-based.
For assay [9], the system named is MDA-MB-231. Put plainly: Inhibition of cell migration in wild-type human MDA-MB-231 cells assessed as decrease in migration speed at 1 to 10 uM incubated for 24 hrs by 2D phase contrast video microscopic analysis. The class given is functional, cell-based. The following applies: dose 1-10 µM.
In assay [10] the test system is MDA-MB-231. Put plainly: Inhibition of cell migration in wild-type human MDA-MB-231 cells assessed as decrease in euclidean distance at 1 to 10 uM incubated for 24 hrs by 2D phase contrast video microscopic analysis. Type of assay: functional, cell-based. The following applies: dose 1-10 µM.
In assay [11] the target is T2, Syntenin-1/Syndecan-2 (Homo sapiens) (UniProt O00560+P34741). The assay can be described thus: Inhibition of full length N-terminal GST-tagged human syntenin-1 expressed in Escherichia coli ER2566/syndecan2 (unknown origin) interaction at 200 uM incubated for 16 hrs by HTRF assay relative to control.
Assay [12] concerns the target T2, Syntenin-1/Syndecan-2 (Homo sapiens). The assay can be described thus: Inhibition of full length N-terminal GST-tagged human syntenin-1 expressed in Escherichia coli ER2566/syndecan2 (unknown origin) interaction at 200 uM incubated for 16 hrs in the presence of NP-40 by HTRF assay.

Calls of active or inactive are those of the source. The rule behind the calls is not given here.

Chain of Syntenin-1/Syndecan-2 (P34741 whole entry, one chain of several, further chain): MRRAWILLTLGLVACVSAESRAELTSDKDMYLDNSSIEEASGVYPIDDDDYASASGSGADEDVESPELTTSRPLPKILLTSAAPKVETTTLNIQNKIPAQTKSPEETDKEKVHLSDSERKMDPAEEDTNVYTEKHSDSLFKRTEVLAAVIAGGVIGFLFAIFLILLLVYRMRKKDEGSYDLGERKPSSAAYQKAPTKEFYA
Chain of ERBIN-P0071 (Homo sapiens) (Q96RT1 whole entry, looked up): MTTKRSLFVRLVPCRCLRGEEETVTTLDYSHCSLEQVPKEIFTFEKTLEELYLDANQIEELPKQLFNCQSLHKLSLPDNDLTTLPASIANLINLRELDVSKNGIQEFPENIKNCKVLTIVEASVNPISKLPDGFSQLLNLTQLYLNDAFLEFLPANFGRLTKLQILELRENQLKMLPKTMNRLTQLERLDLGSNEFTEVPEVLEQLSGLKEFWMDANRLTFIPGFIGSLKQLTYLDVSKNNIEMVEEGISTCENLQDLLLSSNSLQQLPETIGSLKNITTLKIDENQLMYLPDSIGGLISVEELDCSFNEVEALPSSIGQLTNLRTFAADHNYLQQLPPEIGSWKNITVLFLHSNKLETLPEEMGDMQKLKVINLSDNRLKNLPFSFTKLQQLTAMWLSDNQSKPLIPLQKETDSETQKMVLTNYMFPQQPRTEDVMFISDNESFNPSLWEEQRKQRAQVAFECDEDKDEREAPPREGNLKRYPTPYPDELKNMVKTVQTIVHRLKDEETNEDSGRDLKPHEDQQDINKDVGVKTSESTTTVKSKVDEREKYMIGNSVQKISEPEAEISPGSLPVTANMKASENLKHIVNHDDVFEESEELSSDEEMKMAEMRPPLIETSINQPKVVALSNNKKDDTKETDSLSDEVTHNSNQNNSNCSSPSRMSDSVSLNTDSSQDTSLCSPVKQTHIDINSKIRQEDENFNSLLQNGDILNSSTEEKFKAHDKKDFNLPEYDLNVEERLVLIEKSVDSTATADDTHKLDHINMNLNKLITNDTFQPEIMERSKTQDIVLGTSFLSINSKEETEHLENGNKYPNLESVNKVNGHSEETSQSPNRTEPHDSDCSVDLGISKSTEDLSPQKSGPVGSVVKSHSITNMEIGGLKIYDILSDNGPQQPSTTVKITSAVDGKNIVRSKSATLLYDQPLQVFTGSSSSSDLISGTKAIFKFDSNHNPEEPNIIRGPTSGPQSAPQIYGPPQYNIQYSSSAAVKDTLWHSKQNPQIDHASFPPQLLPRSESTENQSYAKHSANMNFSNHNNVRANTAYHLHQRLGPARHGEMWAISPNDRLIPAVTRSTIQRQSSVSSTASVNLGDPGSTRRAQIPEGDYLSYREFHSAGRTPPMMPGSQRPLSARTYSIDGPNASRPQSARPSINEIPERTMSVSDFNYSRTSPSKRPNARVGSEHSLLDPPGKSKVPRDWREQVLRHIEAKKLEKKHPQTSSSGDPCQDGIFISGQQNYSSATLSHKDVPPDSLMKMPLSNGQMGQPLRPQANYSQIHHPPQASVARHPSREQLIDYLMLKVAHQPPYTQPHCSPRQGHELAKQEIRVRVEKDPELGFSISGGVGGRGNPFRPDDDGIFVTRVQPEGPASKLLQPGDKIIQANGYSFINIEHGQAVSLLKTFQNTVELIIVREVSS
Chain of ERBIN-P0071 (Homo sapiens) (Q99569 whole entry, looked up): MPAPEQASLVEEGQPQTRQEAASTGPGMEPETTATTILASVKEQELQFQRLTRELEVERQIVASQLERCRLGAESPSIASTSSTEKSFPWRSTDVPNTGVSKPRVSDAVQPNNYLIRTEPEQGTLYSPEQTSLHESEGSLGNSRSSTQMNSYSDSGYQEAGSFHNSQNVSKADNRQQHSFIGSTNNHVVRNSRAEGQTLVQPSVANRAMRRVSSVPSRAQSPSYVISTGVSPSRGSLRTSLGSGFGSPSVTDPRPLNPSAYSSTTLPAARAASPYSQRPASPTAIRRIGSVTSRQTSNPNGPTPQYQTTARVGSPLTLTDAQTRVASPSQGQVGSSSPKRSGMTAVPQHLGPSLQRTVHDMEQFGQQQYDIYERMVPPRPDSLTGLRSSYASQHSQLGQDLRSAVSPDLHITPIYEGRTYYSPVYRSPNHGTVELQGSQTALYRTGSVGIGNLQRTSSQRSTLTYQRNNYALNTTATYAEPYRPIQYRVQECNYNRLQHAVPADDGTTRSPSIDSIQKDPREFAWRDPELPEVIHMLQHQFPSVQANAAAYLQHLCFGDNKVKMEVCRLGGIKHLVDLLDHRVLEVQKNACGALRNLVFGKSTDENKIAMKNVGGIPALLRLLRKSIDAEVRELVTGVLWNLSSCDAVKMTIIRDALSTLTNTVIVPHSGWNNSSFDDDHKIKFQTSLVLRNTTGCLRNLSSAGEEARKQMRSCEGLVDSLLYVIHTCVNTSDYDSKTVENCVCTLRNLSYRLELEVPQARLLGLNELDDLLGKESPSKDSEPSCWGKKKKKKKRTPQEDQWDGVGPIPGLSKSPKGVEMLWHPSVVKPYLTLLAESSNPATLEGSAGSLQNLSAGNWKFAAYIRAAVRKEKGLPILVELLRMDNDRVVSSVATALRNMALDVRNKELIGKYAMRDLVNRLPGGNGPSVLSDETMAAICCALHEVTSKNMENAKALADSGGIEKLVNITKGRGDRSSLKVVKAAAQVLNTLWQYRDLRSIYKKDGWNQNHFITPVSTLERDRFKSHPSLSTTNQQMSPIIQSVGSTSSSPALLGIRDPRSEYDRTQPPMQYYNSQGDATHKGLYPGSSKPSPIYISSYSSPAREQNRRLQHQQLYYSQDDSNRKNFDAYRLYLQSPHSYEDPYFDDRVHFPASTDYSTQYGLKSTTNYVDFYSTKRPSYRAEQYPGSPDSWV
Chain of GRASP55-JAMB (Homo sapiens) (P57087 whole entry, looked up, other chains not shown): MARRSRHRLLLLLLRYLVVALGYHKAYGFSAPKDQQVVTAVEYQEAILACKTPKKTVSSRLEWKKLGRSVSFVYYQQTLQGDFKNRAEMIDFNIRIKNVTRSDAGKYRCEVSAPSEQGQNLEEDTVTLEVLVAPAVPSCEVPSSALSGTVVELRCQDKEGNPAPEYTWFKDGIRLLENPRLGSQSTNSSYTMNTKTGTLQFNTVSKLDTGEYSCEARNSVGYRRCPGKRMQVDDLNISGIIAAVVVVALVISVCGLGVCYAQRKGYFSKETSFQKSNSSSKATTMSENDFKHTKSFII

For `CC(=O)Nc1ccc(-c2ccc(C[C@@H](C(=O)N[C@@H](C)C(=O)O)N3Cc4cc(Br)ccc4C3=O)cc2)cc1`, it took 0.82 µM to reach half-maximal inhibition on Syntenin-1/Syndecan-2 (IC50). `C[C@H](NC(=O)[C@H](Cc1ccc(-c2ccccc2F)cc1)N1Cc2ccccc2C1=O)C(=O)O` had an IC50 against Syntenin-1/Syndecan-2 of 9.9 µM.

The compound `CC(=O)Nc1ccc(-c2ccc(C[C@@H](C(=O)N[C@@H](C)C(=O)O)N3Cc4ccccc4C3=O)cc2)cc1` showed a 50% inhibitory concentration (IC50) against Syntenin-1/Syndecan-2 of 7.7 µM. For `CC(C)[C@@H](C(=O)N[C@@H](Cc1ccccc1)C(=O)O)N1Cc2ccccc2C1=O`, at Syntenin-1/Syndecan-2, the IC50 is > 500 µM.

Regarding `CC(C)[C@H](NC(=O)[C@H](C(C)C)N1Cc2ccccc2C1=O)C(=O)O`, the IC50 against Syntenin-1/Syndecan-2 was > 500 µM. For `CC(C)[C@H](NC(=O)[C@H](Cc1ccccc1)N1Cc2ccccc2C1=O)C(=O)O`, the IC50 at Syntenin-1/Syndecan-2 was > 500 µM. For the same compound, the inhibition entry with MDA-MB-231 [1] and in the assay on MDA-MB-231 [2] was “Active” throughout. As for `CC(C)C[C@@H](C(=O)N[C@@H](C)C(=O)O)N1Cc2ccccc2C1=O`, half-maximal inhibition against Syntenin-1/Syndecan-2 (IC50) was put at 213 µM. Still for that read-out and setting: with `C[C@H](NC(=O)[C@H](Cc1ccc(Br)cc1)N1Cc2ccccc2C1=O)C(=O)O` the figure was 35 µM; with `C[C@H](NC(=O)[C@H](Cc1ccc(-c2ccc3occc(=O)c3c2)cc1)N1Cc2ccccc2C1=O)C(=O)O`, 4 µM; with `COc1ccc(C[C@@H](C(=O)N[C@@H](C)C(=O)O)N2Cc3ccccc3C2=O)cc1`, 128 µM.

Turning to `CC(=O)c1ccc(F)c(-c2ccc(C[C@@H](C(=O)N[C@@H](C)C(=O)O)N3Cc4cc(Br)ccc4C3=O)cc2)c1`, half-maximal inhibition at Syntenin-1/Syndecan-2 (IC50) was put at 0.4 µM. Further, the inhibition entry (in assay [3]; in assay [4]; in the assay with MDA-MB-231 [7]; with MDA-MB-231 [8]) was “inactive” throughout. For the same compound, the Kd on Syntenin-1 came to 1.8 µM. Moreover, the result in the assay on MDA-MB-231 [5] and with MDA-MB-231 [6] was inactive. Moreover, the inhibition entry in the assay on MDA-MB-231 [1], in the assay on MDA-MB-231 [2], in the assay on MDA-MB-231 [9] and in the assay with MDA-MB-231 [10] was “Active” each time. Consider `Cc1ccc(C[C@@H](C(=O)N[C@@H](C)C(=O)O)N2Cc3ccccc3C2=O)cc1`, for which, at Syntenin-1/Syndecan-2, the IC50 was > 200 µM. Still for that read-out and setting: with `C[C@H](NC(=O)[C@H](Cc1ccc(O)cc1)N1Cc2ccccc2C1=O)C(=O)O` the figure was 44 µM; with `CC[C@H](C)[C@H](NC(=O)[C@H](C(C)C)N1Cc2ccccc2C1=O)C(=O)O`, > 500 µM. Still for that read-out and setting: with `CC(C)C[C@H](NC(=O)[C@H](Cc1ccccc1)N1Cc2ccccc2C1=O)C(=O)O` the figure was > 500 µM. For `C[C@H](NC(=O)[C@H](Cc1ccccc1)NC(=O)c1cc2cc(Cl)ccc2n1C)C(=O)O`, the inhibition in assay [11] was > 60%. Same read-out and setting: with `COc1cc2cc(C(=O)N(C)CCOc3cccc(Cl)c3)[nH]c2c(OC)c1OC` the figure was > 60%. With `O=C(O)[C@H](Cc1ccccc1)NC(=O)[C@H](Cc1ccccc1)N1Cc2ccccc2C1=O`, the IC50 against Syntenin-1/Syndecan-2 was > 500 µM. Still for that read-out and setting: with `CC(C)[C@@H](C(=O)N[C@@H](C)C(=O)O)N1Cc2cc(Br)ccc2C1=O` the figure was 20 µM; with `C[C@H](NC(=O)[C@H](Cc1ccc(-c2cc(CO)ccc2F)cc1)N1Cc2cc(Br)ccc2C1=O)C(=O)O`, 1.5 µM. For the compound `CC[C@H](C)[C@H](NC(=O)[C@H](Cc1ccccc1)N1Cc2ccccc2C1=O)C(=O)O`, on Syntenin-1/Syndecan-2, the IC50 was > 500 µM.

On to `CC(C)[C@@H](C(=O)N[C@@H](C)C(=O)O)N1Cc2c(Cl)cccc2C1=O`, for which the IC50 at Syntenin-1/Syndecan-2 was > 200 µM. Same read-out and setting: with `COc1ccc(F)c(-c2ccc(C[C@@H](C(=O)N[C@@H](C)C(=O)O)N3Cc4ccccc4C3=O)cc2)c1` the figure was 10 µM; with `C[C@H](NC(=O)[C@H](Cc1ccc(Cl)cc1)N1Cc2ccccc2C1=O)C(=O)O`, 78 µM. In the case of `CCOC(=O)C(Cc1c[nH]c2ccccc12)NC(=O)C(Cc1ccccc1)N1C(=O)c2ccccc2C1=O` (centres undefined), the inhibition in assay [11] is > 60%.

For the compound `CCOc1nc2ccccc2nc1N1CCCC(C(=O)N2CCc3ccccc3C2)C1` (centres undefined), the inhibition in assay [11] was > 60%. `C[C@H](NC(=O)C(CSCc1ccccc1)N1Cc2ccccc2C1=O)C(=O)O` (single isomer, unassigned): inhibition at Syntenin-1/Syndecan-2 was half-maximal at 63 µM (IC50). Still for that read-out and setting: with `CC(C)C[C@@H](C(=O)N[C@@H](Cc1ccccc1)C(=O)O)N1Cc2ccccc2C1=O` the figure was > 500 µM; with `C[C@H](NC(=O)[C@H](Cc1ccc2ccccc2c1)N1Cc2cc(Br)ccc2C1=O)C(=O)O`, 5.2 µM. In the case of `C[C@H](NC(=O)[C@H](Cc1ccc2ccccc2c1)N1Cc2ccccc2C1=O)C(=O)O`, at Syntenin-1/Syndecan-2, the IC50 is 13 µM.

In the case of `CC(C)C[C@H](NC(=O)[C@H](CC(C)C)N1Cc2ccccc2C1=O)C(=O)O`, the half-maximal inhibitory concentration (IC50) against Syntenin-1/Syndecan-2 is > 500 µM. Same read-out and setting: with `CC(C)C[C@@H](C(=O)N[C@H](C(=O)O)C(C)C)N1Cc2ccccc2C1=O` the figure was > 500 µM. Still for that read-out and setting: with `CC(C)C[C@H](NC(=O)[C@H](C(C)C)N1Cc2ccccc2C1=O)C(=O)O` the figure was > 500 µM; with `CC[C@H](C)[C@H](NC(=O)[C@H](CC(C)C)N1Cc2ccccc2C1=O)C(=O)O`, > 500 µM; with `C[C@H](NC(=O)[C@H](Cc1ccc(-c2cc(CO)ccc2F)cc1)N1Cc2ccccc2C1=O)C(=O)O`, 5.3 µM. Still for that read-out and setting: with `C[C@H](NC(=O)[C@H](Cc1c[nH]c2ccccc12)N1Cc2ccccc2C1=O)C(=O)O` the figure was 33 µM; with `C[C@H](NC(=O)[C@H](Cc1ccccc1)N1Cc2ccccc2C1=O)C(=O)O`, 67 µM. As to `CC(Oc1ccc(-c2cc(N)nc3[nH]ccc23)cc1Cl)C(=O)O` (centres undefined), the inhibition in assay [11] was > 60%. Compound `CC(C)[C@@H](C(=O)N[C@@H](C)C(=O)O)N1Cc2ccccc2C1=O` yielded an IC50 against Syntenin-1/Syndecan-2 of 76 µM. The inhibition result (in [3]; in assay [4]; with MDA-MB-231 [7]; with MDA-MB-231 [8]) was “inactive” each time. Besides, the outcome in the assay on MDA-MB-231 [5] and in the assay with MDA-MB-231 [6] was inactive. Further, the inhibition entry (with MDA-MB-231 [1]; with MDA-MB-231 [2]; in [12]) was “Active” in each case. The inhibition in assay [11] was > 60%.

At Syntenin-1/Syndecan-2, `C[C@H](NC(=O)[C@H](Cc1ccc(C#N)cc1)N1Cc2ccccc2C1=O)C(=O)O` displayed an IC50 of 180 µM. For `CC(=O)c1ccc(F)c(-c2ccc(C[C@@H](C(=O)N[C@@H](C)C(=O)O)N3Cc4ccccc4C3=O)cc2)c1`, the IC50 against Syntenin-1/Syndecan-2 was 4.2 µM. This IC50 is about 43-fold lower than that of the compound before. On the same count and under the same terms, with `CC(C)[C@@H](C(=O)N[C@@H](C)C(=O)O)N1Cc2ccc(Br)cc2C1=O` the figure was > 200 µM. As to `COc1ccccc1NC(=O)N1CCCC(c2nc(O)c3nnn(Cc4ccc(C)cc4)c3n2)C1` (centres undefined), the inhibition in assay [11] is > 60%. As to `CCOc1ccc2[nH]c(=O)c(CN(C3CCCCC3)C(CC)c3nnnn3C(C)(C)C)cc2c1` (centres undefined), the inhibition in [11] is > 60%. The compound `C[C@H](NC(=O)[C@H](Cc1ccc(-c2ccc3c(c2)C(=O)N(C)C3)cc1)N1Cc2ccccc2C1=O)C(=O)O` came in with an IC50 on Syntenin-1/Syndecan-2 of 6.3 µM.

For the compound `CC(C)[C@@H](C(=O)N[C@@H](C)C(=O)O)N1Cc2cc(Cl)ccc2C1=O`, the IC50 against Syntenin-1/Syndecan-2 came to 14 µM.
